Test results taken from ChEMBL document CHEMBL5344460, “Advancements in Predictive Medicine: NLRP3 Inflammasome Inhibitors and AI-Driven Predictive Health Analytics” (ACS Med Chem Lett, 2024).

Molecular target: NACHT, LRR and PYD domains-containing protein 3 (Homo sapiens, UniProt Q96P20)
Test: Binding affinity to human recombinant NLRP3 inflammasome

Chain of NACHT, LRR and PYD domains-containing protein 3 (Q96P20 whole entry, the tested form may be a part): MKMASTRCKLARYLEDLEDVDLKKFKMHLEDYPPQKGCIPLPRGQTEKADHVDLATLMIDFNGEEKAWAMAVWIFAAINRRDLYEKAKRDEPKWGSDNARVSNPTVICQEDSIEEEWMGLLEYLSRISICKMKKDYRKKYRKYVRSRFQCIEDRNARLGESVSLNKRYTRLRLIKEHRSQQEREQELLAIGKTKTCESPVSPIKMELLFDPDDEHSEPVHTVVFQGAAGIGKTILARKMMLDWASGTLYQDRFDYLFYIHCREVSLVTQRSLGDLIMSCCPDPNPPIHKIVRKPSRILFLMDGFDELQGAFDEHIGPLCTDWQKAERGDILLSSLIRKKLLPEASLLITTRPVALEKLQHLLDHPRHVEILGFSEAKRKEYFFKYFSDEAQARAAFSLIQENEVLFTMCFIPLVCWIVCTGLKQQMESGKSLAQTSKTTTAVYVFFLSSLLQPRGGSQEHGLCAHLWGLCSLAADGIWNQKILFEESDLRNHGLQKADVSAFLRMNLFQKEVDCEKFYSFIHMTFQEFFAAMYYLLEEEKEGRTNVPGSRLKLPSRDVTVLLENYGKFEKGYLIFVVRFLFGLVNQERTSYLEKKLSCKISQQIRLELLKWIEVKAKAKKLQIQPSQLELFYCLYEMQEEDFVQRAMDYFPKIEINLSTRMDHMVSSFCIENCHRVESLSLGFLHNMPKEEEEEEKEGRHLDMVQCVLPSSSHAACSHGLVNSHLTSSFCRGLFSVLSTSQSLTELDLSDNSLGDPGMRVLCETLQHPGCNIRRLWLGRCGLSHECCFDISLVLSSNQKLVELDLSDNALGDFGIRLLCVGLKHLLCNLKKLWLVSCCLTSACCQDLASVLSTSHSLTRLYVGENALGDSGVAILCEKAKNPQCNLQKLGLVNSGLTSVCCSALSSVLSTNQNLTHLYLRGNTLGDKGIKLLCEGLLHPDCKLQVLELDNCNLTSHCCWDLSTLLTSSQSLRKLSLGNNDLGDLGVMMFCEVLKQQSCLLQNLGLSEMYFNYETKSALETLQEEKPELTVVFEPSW

Row | Compound | Kd [nM]
1 | COc1ccc(Cl)cc1Cn1cc(-c2ccc(C(=O)N3CCC3)cc2)nn1 | 3000
2 | COc1ccc(Cl)cc1Cn1cc(C(=O)N2CC(F)(F)C2)nn1 | 980
3 | COC(=O)c1ccc(-c2cn(Cc3cc(Cl)ccc3OC)nn2)nc1 | 860
